Assay results taken from patent US9233989B2, “Sila analogs of oxazolidinone derivatives and synthesis thereof” (Council of Scientific & Industrial Research, priority 2011, dated 2016).
In brackets after ≈: the same amount, converted by molar mass.

Columns and labels:
[1] = tested on: Mycobacterium tuberculosis H37Rv; experiment: Anti-TB activity, colorimetric resazurin microtiter assay; format: cell-based; settings: Mycobacterium tuberculosis, H37RV, read-out: MIC, Minimum Inhibitory Concentration (90%)
[2] = tested on: E.faecalis ATCC 51299(VRE&HLAR); experiment: MIC by microbroth dilution method; format: cell-based
[3] = tested on: E.faecalis ATCC 29212; experiment: MIC by microbroth dilution method; format: cell-based
[4] = tested on: E.faecalis ATCC 19433; experiment: MIC by microbroth dilution method; format: cell-based
[5] = tested on: E.faecium ATCC 3567; experiment: MIC by microbroth dilution method; format: cell-based
[6] = tested on: S.aureus ATCC 13709 Smith; experiment: MIC by microbroth dilution method; format: cell-based
[7] = tested on: S.aureus ATCC 29213; experiment: MIC by microbroth dilution method; format: cell-based
[8] = tested on: MRSA ATCC BAA 39; experiment: MIC by microbroth dilution method; format: cell-based, S. aureus
[9] = tested on: S.aureus 13709 LNZ mutant; format: cell-based
[10] = tested on: E.faecium 6A VRE; experiment: MIC by microbroth dilution method; format: cell-based
[11] = tested on: S.epidermis St 358; experiment: MIC by microbroth dilution method; format: cell-based, S. epidermidis
[12] = tested on: MRSA 562; experiment: MIC by microbroth dilution method; format: cell-based, S. aureus
[13] = tested on: E.faecium ATCC 19434; experiment: MIC by microbroth dilution method; format: cell-based
[14] = tested on: MRSA 0-2657; experiment: MIC by microbroth dilution method; format: cell-based, S. aureus
[15] = tested on: E.faecium 06076 VRE; experiment: MIC by microbroth dilution method; format: cell-based
[16] = tested on: E.faecium ATCC 35667; experiment: MIC by microbroth dilution method; format: cell-based
[17] = tested on: E.faecium ATCC 49224; experiment: MIC by microbroth dilution method; format: cell-based
[18] = tested on: E.faecium 134 VRE; experiment: MIC by microbroth dilution method; format: cell-based
[19] = tested on: S.aureus ATCC 49775 PVL + ve; format: cell-based
[20] = tested on: S.aureus ATCC 700699 Mu50; experiment: MIC by microbroth dilution method; format: cell-based
[21] = tested on: MRSE ATCC 35983; experiment: MIC by microbroth dilution method; format: cell-based, S. epidermidis
[22] = tested on: MRSA ATCC 43300; experiment: MIC by microbroth dilution method; format: cell-based, S. aureus
[23] = tested on: MRSA DB 00026; experiment: MIC by microbroth dilution method; format: cell-based, S. aureus
[24] = tested on: S.epidermidis ATCC 14990; experiment: MIC by microbroth dilution method; format: cell-based
[25] = tested on: MRSE ATCC 35984; experiment: MIC by microbroth dilution method; format: cell-based, S. epidermidis
[26] = tested on: MRSA 252 BAA 1720; experiment: MIC by microbroth dilution method; format: cell-based, S. aureus
[27] = tested on: S.aureus2 (PVL + ve); format: cell-based, S. aureus
[28] = tested on: S.epidermidis ATCC 12228; experiment: MIC by microbroth dilution method; format: cell-based
[29] = tested on: E.coli 7632; experiment: MIC by microbroth dilution method; format: cell-based
[30] = tested on: E.faecalis SP 346 VRE; experiment: MIC by microbroth dilution method; format: cell-based
[31] = tested on: S.aureus DB00026; experiment: MIC by microbroth dilution method; format: cell-based
[32] = tested on: S.aureus ATCC Newman 25904; experiment: MIC by microbroth dilution method; format: cell-based

| Structure (SMILES) | MIC [1] | MIC [2] | MIC [3] | MIC [4] | MIC [5] | MIC [6] | MIC [7] | MIC [8] | MIC [9] | MIC [10] | MIC [11] | MIC [12] | MIC [13] | MIC [14] | MIC [15] | MIC [18] | MIC [19] | MIC [20] | MIC [21] | MIC [23] | also measured |
| --- | --- | --- | --- | --- | --- | --- | --- | --- | --- | --- | --- | --- | --- | --- | --- | --- | --- | --- | --- | --- | --- |
| C[Si]1(C)CCN(c2ccc(N3C[C@H](Cn4ccnn4)OC3=O)cc2F)CC1 [NDS-10060, (R)-5-((1H-1,2,3-triazol-1-yl)methyl)-3-(4-(4,4-dimethyl-1,4-azasilinan-1-yl)-3-fluorophenyl)oxazolidin-2-one] | 50 µg/mL (≈ 128 µM) | 16 µg/mL (≈ 41.1 µM) | 8 µg/mL (≈ 20.5 µM) | 16 µg/mL (≈ 41.1 µM) | > 32 µg/mL | 16 µg/mL (≈ 41.1 µM) | 32 µg/mL (≈ 82.2 µM) | 16 µg/mL (≈ 41.1 µM) | 32 µg/mL (≈ 82.2 µM) | 32 µg/mL (≈ 82.2 µM) | 16 µg/mL (≈ 41.1 µM) | 16 µg/mL (≈ 41.1 µM) | 32 µg/mL (≈ 82.2 µM) | 16 µg/mL (≈ 41.1 µM) | 32 µg/mL (≈ 82.2 µM) | 16 µg/mL (≈ 41.1 µM) | 16 µg/mL (≈ 41.1 µM) | 32 µg/mL (≈ 82.2 µM) | 32 µg/mL (≈ 82.2 µM) | 16 µg/mL (≈ 41.1 µM) | MIC [16]: 32 µg/mL (≈ 82.2 µM); MIC [17]: 32 µg/mL (≈ 82.2 µM); MIC [22]: 32 µg/mL (≈ 82.2 µM); MIC [24]: 8 µg/mL (≈ 20.5 µM); MIC [25]: 16 µg/mL (≈ 41.1 µM); MIC [26]: 32 µg/mL (≈ 82.2 µM); MIC [27]: 16 µg/mL (≈ 41.1 µM); MIC [28]: > 32 µg/mL; MIC [29]: 16 µg/mL (≈ 41.1 µM); MIC [30]: 16 µg/mL (≈ 41.1 µM); MIC [31]: 16 µg/mL (≈ 41.1 µM); MIC [32]: 16 µg/mL (≈ 41.1 µM) |
| CC(C)(C)OC(=O)NC[C@H]1CN(c2cc(F)c(N3CC[Si](C)(C)CC3)c(F)c2)C(=O)O1 [NDS-10031, (S)-tert-butyl((3-(4-(4,4-dimethyl-1,4-azasilinan-1-yl)-3,5-difluorophenyl)-2-oxooxazolidin-5-yl)methyl)carbamate] | – | > 16 µg/mL | > 16 µg/mL | > 16 µg/mL | > 16 µg/mL | > 16 µg/mL | > 16 µg/mL | > 16 µg/mL | > 16 µg/mL | > 16 µg/mL | > 16 µg/mL | > 16 µg/mL | > 16 µg/mL | > 16 µg/mL | > 16 µg/mL | > 16 µg/mL | > 16 µg/mL | > 16 µg/mL | > 16 µg/mL | > 16 µg/mL | MIC [24]: > 16 µg/mL; MIC [25]: > 16 µg/mL; MIC [28]: > 16 µg/mL; MIC [29]: > 32 µg/mL; MIC [30]: > 16 µg/mL |
| COC(=S)NC[C@H]1CN(c2cc(F)c(N3CC[Si](C)(C)CC3)c(F)c2)C(=O)O1 [NDS-10055, (S)—O-methyl(3-(4-(4,4-dimethyl-1,4-azasilinan-1-yl)-3,5-difluorophenyl)-2-oxooxazolidin-5-yl)methylcarbamothioate] | > 100 µg/mL | – | – | – | – | – | – | – | – | – | – | – | – | – | – | – | – | – | – | – | – |
| CC(=O)NC[C@H]1CN(c2ccc(N3CCOCC3)c(F)c2)C(=O)O1 [Linezolid, (S)—N-({3-[3-fluoro-4-(morpholin-4-yl)phenyl]-2-oxo-1,3-oxazolidin-5-yl}methyl)acetamide, reference compound] | – | 1 µg/mL (≈ 2.96 µM) | 0.5 µg/mL (≈ 1.48 µM) | 1 µg/mL (≈ 2.96 µM) | 2 µg/mL (≈ 5.93 µM) | 2 µg/mL (≈ 5.93 µM) | 2 µg/mL (≈ 5.93 µM) | 2 µg/mL (≈ 5.93 µM) | 2 µg/mL (≈ 5.93 µM) | 2 µg/mL (≈ 5.93 µM) | 2 µg/mL (≈ 5.93 µM) | 2 µg/mL (≈ 5.93 µM) | 2 µg/mL (≈ 5.93 µM) | 1 µg/mL (≈ 2.96 µM) | 2 µg/mL (≈ 5.93 µM) | 2 µg/mL (≈ 5.93 µM) | 2 µg/mL (≈ 5.93 µM) | 2 µg/mL (≈ 5.93 µM) | 1 µg/mL (≈ 2.96 µM) | 2 µg/mL (≈ 5.93 µM) | MIC [16]: 4 µg/mL (≈ 11.9 µM); MIC [17]: 2 µg/mL (≈ 5.93 µM); MIC [22]: 4 µg/mL (≈ 11.9 µM); MIC [24]: 2 µg/mL (≈ 5.93 µM); MIC [25]: 1 µg/mL (≈ 2.96 µM); MIC [26]: 1 µg/mL (≈ 2.96 µM); MIC [27]: 2 µg/mL (≈ 5.93 µM); MIC [29]: 1 µg/mL (≈ 2.96 µM); MIC [30]: 2 µg/mL (≈ 5.93 µM); MIC [31]: 1 µg/mL (≈ 2.96 µM); MIC [32]: 2 µg/mL (≈ 5.93 µM) |
| CCC(=O)NC[C@H]1CN(c2cc(F)c(N3CC[Si](C)(c4ccccc4)CC3)c(F)c2)C(=O)O1 [NDS-10069, (S)—N-((3-(3,5-difluoro-4-(4-methyl-4-phenyl-1,4-azasilinan-1-yl)phenyl)-2-oxooxazolidin-5-yl)methyl)propionamide] | 50 µg/mL (≈ 106 µM) | – | – | – | – | – | – | – | – | – | – | – | – | – | – | – | – | – | – | – | – |
